# Experimental data as given in patent US20150031598A1, “NEMO BINDING DOMAIN FUSION PROTEINS” (Encode Bio, Inc., priority 2012, published 2015).
# Ends that are not written are not given here.
# B1: linear NBD-MCoTI-II generated by automated synthesis (designed binder)
# chain: FTALDWSWLQTCPKILKKCRRDSDCPGACICRGNGYC
# modifications: ends and bridges not checked; also: folded in glutathione buffers, disulfides not placed
# Legend:
# [1] = test system: carrageenan-induced paw edema; assay: Mouse carrageenan paw edema (CPE) model; assay type: in vivo; details: for reduction of swelling: 12 hours post-carrageenan
# Description: Anti-inflammatory activity of linear NBD-MCoTI-II was tested at two doses (5 and 25 μg/kg) in the mouse CPE model. Mice were administered (i.p.) either NBD-MCoTI-II, dexamethasone (10 mg/kg) or saline one hour prior to inducing edema by carrageenan injection into the subplantar region of the left hind foot. Swelling was then measured by water displacement method at 2, 4, 6 and 12 hours post-carrageenan injection. […] At 12 hours, 5 and 25 μg/kg NBD MCoTI-II reduced swelling 30 and 50%, respectively (FIG. 5). […] (FIG. 5).
# [2] = test system: collagen-induced arthritis; assay: Mouse collagen-induced arthritis (CIA) model, therapeutic mode; assay type: in vivo, male DBA/1J mice
# Description: We next tested the efficacy of linear NBD-MCoTI-II in the mouse CIA model in therapeutic mode, a standard model for evaluating anti-arthritic activity. Mice were injected with collagen type II. CIA was induced in male DBA/1J mice by tail injection of Type II collagen (100 μg) mixed with complete Freund's adjuvant. On Day 21, a booster injection (i.p.) of collagen (100 μg)/incomplete Freund's adjuvant was administered. The severity of arthritis (arthritic index (AI)) was scored in each paw as follows: 0-no evidence of erythema and swelling, 1-erythema and mild swelling confined to the mid-foot (tarsals) or ankle joint, 2-erythema and mild swelling extending from the ankle to the mid-foot, 3-erythema and moderate swelling extending from the ankle to the metatarsal joints and 4-erythema and severe swelling encompass the ankle, foot and digits. AI scores were measured in each paw and summed (maximum score of 16 per mouse). After the AI score reached an average of 3.1 on Day 27, mice were separated into three treatment groups and administered (i.p.) daily: saline, 100 μg/kg NBD-MCoTI-II and 3 mg/kg dexamethasone for 14 days. AI scores, body weights, paw thickness and any signs of distress were monitored daily. […] The marked inhibition of arthritic disease progression by NBD-MCoTI-II persisted for the study duration. […] The effect lasted the study duration.
# To further assess the efficacy of linear NBD-MCoTI-II we performed histopathology analysis of the studies on the joints of CIA mice treated with saline and NBD-MCoTI-II (100 μg/kg).
# To compare the efficacy of NBD-MCoTI-II to existing anti-arthritic drugs we calculated a composite histopathology score for the CIA mice from the individual scores of inflammation, pannus, cartilage damage and bone resorption by adding them. Shown in FIG. 9 is a comparison of the composite histopathology scores for NBD-MCoTI-II (100 μg/kg) to published values for the existing anti-arthritic drugs Enbrel™ (15 mg/kg), Orencia™ (5 mg/kg), Xeljanz™ (10 mg/kg) and INCB028050 (15/mg). Data are presented as a percent of the composite histopathology scores for CIA mice treated with saline. […] J Immunol 184:5298-307, the contents of each of which are herein incorporated by reference in their entireties). […] Thus, linear NBD-MCoTI-II prevented joint damage while the other anti-arthritic drugs were only capable of reducing joint damage.
# Splenomegaly is associated with arthritis and has been observed in the mouse CIA model [(see, e.g., Foell J L et al., (2004) Engagement of the CD137 (4-1BB) costimulatory molecule inhibits and reverses the autoimmune process in collagen-induced arthritis and establishes lasting disease resistance. Immunology 113:89-98; and Liu Y et al., (2011) Therapeutic effects of TACI-Ig on collagen-induced arthritis by regulating T and B lymphocytes function in DBA/1 mice. Eur J Pharmacol 654:304-14); the contents of each of which are herein incorporated by reference in their entirities)].
# Mouse body weights were unchanged relative to saline controls.
# NF-κB signaling = assay: TNFα-mediated SEAP expression in pNiFty-SEAP transfected HEK293 cells (NF-κB reporter); assay type: cell-based; details: for block of TNFα-mediated SEAP expression (in words): pNiFty-SEAP transfected HEK293 cells
# From the text: HEK293 cells were transfected with the plasmid pNiFty-SEAP which encodes for a secreted alkaline phosphatase (SEAP) whose expression is under control of an ELAM-1 composite promoter containing five NF-κB sites. Treatment of cells with TNFα causes activation of the IkB kinase complex and, in turn, NF-κB, resulting in SEAP expression. We verified that pNiFty-SEAP transfected HEK293 cells treated with the NBD Peptide (FIG. 2; FIG. 3, Panel B) blocked the expression of TNFα-mediated SEAP expression in a concentration-dependent manner with an IC50 of ˜60 μM. […] Treatment of cells with circularized NBD-MCoTI-II generated in bacteria (data not shown) or linear NBD-MCoTI-II generated by automated synthesis (FIG. 2; FIG. 3 Panel A) blocked TNFα-mediated SEAP expression, but not WT MCoTI-II (FIG. 2).
# HEK293 cells = assay type: cell-based; details: concentrations up to 1 μM
# [3] = molecular target: NEMO (nuclear factor kB essential modulator) (UniProt Q9Y6K9 1-419); assay: cell-based or functional assay
# Sequence of NEMO (nuclear factor kB essential modulator) (UniProt Q9Y6K9 1-419) (Q9Y6K9 whole entry): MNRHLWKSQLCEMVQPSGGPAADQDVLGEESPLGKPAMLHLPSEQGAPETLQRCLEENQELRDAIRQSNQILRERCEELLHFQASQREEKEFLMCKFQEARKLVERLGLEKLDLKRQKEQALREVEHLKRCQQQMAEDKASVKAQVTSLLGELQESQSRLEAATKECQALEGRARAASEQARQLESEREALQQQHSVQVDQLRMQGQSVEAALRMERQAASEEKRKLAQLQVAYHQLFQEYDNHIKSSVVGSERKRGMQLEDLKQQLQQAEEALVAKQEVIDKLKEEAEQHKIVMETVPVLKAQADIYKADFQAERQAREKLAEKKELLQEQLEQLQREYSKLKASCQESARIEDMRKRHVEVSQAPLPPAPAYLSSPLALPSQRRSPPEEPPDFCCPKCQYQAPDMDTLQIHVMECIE
# [4] = molecular target: NEMO (nuclear factor kB essential modulator) (UniProt Q9Y6K9); assay: cell-based or functional assay
# Sequence of NEMO (nuclear factor kB essential modulator) (UniProt Q9Y6K9) (Q9Y6K9 whole entry): as above
molecule,measurement,setting,value
FTALDWSWLQTCPKILKKCRRDSDCPGACICRGNGYC [linear NBD-MCoTI-II],in vivo potency relative to NBD Peptide,[1]; 5 μg/kg NBD-MCoTI-II similar to NBD Peptide 25 mg/kg (di Meglio 2005),5000 fold
same,reduction of swelling,[1]; 5 μg/kg i.p.,30%
same,reduction of swelling,[1]; 25 μg/kg i.p.,50%
same,swelling (in words),"[1]; 5 and 25 μg/kg i.p., 4, 6 and 12 hours post-carrageenan",significantly reduced swelling
same,"joint histopathology scores (inflammation, pannus, cartilage damage, bone resorption)",[2]; 100 μg/kg,at or near zero
same,progression of arthritis (arthritic index score),"[2]; 100 μg/kg i.p. daily, by Day 29, p<0.01, persisted for the study duration",halted the progression of arthritis
same,increase in paw thickness,"[2]; 100 μg/kg i.p. daily, p<0.01, lasted the study duration",blocked the increase in paw thickness
same,composite histopathology score,"[2]; 100 μg/kg, percent of saline-treated CIA mice",almost zero
same,"kidney, liver and intestine weights",[2]; CIA mice,within normal ranges
same,"laboratory blood analysis (blood chemistry, kidney function tests, ALT, AST, blood cell counts)",[2]; CIA mice,within normal ranges
same,signs of toxicity or distress,"[2]; CIA mice, 100 μg/kg i.p. daily for 14 days",no obvious signs of toxicity or distress
same,spleen weight,"[2]; CIA mice, saline 135±27 mg, p<0.01",100 ± 17 mg
same,efficacy relative to CP690550 (Xeljanz) and anti-TNF Ab control in ameliorating arthritic symptoms,[2]; comparison with Milici 2008,at least as effective
same,mouse body weights,[2]; relative to saline controls,unchanged
same,"potency relative to NBD peptide, inhibition of NF-κB signaling","NF-κB signaling; cell-based assay, versus NBD Peptide",10^6 fold
same,block of TNFα-mediated SEAP expression (in words),NF-κB signaling,blocked
same,overt cellular toxicity,HEK293 cells,no overt cellular toxicity
"WT MCoTI-II: wild-type MCoTI-II (SEQ ID NO:3), cystine-knot microprotein, trypsin inhibitor subfamily (MCGSGSDGGVCPKILKKCRRDSDCPGACICRGNGY; disulfide (positions not given here); not fully specified; listed as Homo sapiens) [reference compound]",block of TNFα-mediated SEAP expression (in words),NF-κB signaling,not
same,overt cellular toxicity,HEK293 cells,no overt cellular toxicity
"circularized NBD-MCoTI-II: circular, native-folded NBD-MCoTI-II generated in bacteria; sequence after processing SEQ ID NO:10 (cyclo(FTALDWSWLQTCPKILKKCRRDSDCPGACICRGNGYC); ends not checked; also: native-folded, disulfide pairing not given here)",block of TNFα-mediated SEAP expression (in words),NF-κB signaling,blocked
B1,"IC50 for blocking TNFα-mediated SEAP expression (NF-κB reporter, pNiFty-SEAP transfected HEK293 cells)",[3],60 pM
"FTALDWSWLQT (peptide, part only; not given: cell penetrating peptide, part only, not fully specified) [NBD Peptide]","IC50 for blocking TNFα-mediated SEAP expression (NF-κB reporter, pNiFty-SEAP transfected HEK293 cells)",[4],60 µM
